For 3 compounds, Ct and Activity results are on record in ChEMBL document CHEMBL1147818, “1,1'-Xylyl bis-1,4,8,11-tetraaza cyclotetradecane: a new potential copper chelator agent for neuroprotection in Alzheimer's disease. Its comparative effects with clioquinol on rat brain copper distribution” (Bioorg Med Chem Lett, 2006).

Data set [1] deals with Rattus norvegicus. The data set is described as follows: Distribution of copper per 100 ml of Wistar rat blood at 5 mg/kg, iv after 1 hr. Details: dose 5 mg/kg, route intravenous. Format: ADME, organism-based. To be noted: in vivo.
Data set [2] relates to Rattus norvegicus. In words: Decrease in copper concentration in Wistar rat CSF at 5 mg/kg, iv after 1 hr relative to control. Format: functional. Further details: scale not given: the % may be the effect or the level left.

`Oc1c(I)cc(Cl)c2cccnc12` [CLIOQUINOL] had a Ct in the data set on Rattus norvegicus [1] of 126 µg. In addition, the Activity with Rattus norvegicus [2] is on record as 70%.
In the data set on Rattus norvegicus [1], `CC(C)(S)[C@@H](N)C(=O)O` [PENICILLAMINE] had a Ct of 135 µg.
Consider `c1cc(CN2CCCNCCNCCCNCC2)ccc1CN1CCCNCCNCCCNCC1` [PLERIXAFOR], for which, in the data set on Rattus norvegicus [1], the Ct turned out to be 142 µg. This compound also had an Activity in the data set with Rattus norvegicus [2] of 70%.
